In experiment [1] the test system is Phytophthora infestans—PHYTIN. In words: whole plant or invertebrate. The format is in vivo. The following applies: Phytophthora, in Solanum lycopersicum, 24 h, read-out: PHYTIN in vivo 1 Day Protectant.
Experiment [2] deals with Puccinia recondita—PUCCRT. In words: Brown Rust of Wheat, in vivo whole plant, 24 Hour Protectant. To be noted: control of fungal infection vs untreated plants; for pest or weed control at 100 ppm: Puccinia, read-out: PUCCRT in vivo 1 Day Protectant.
In experiment [3] the test system is Phytophthora infestans (PHYTIN). In words: microbe, parasite or virus in culture. Type of experiment: cell-based. The following applies: Phytophthora infestans, read-out: PHYTIN in vitro Growth Inhibition.
For experiment [4], the system named is Rhizoctonia solani (RHIZSO). The experiment in a line: microbe, parasite or virus in culture. Type of experiment: cell-based. The following applies: Rhizoctonia solani, read-out: RHIZSO in vitro Growth Inhibition.
Experiment [5] deals with Leptosphaeria nodorum—LEPTNO. The experiment in a line: Glume Blotch of Wheat, in vivo whole plant, 24 Hour Protectant. The following applies: Leptosphaeria, control of fungal infection vs untreated plants, read-out: LEPTNO in vivo 1 Day Protectant.
In the next experiment the test system is Ustilago maydis (USTIMA). In words: microbe, parasite or virus in culture. The format is cell-based. To be noted: Mycosarcoma maydis, read-out: USTIMA in vitro Growth Inhibition.
Experiment [6] relates to Magnaporthe grisea (Pyricularia oryzae—PYRIOR). In words: microbe, parasite or virus in culture. To be noted: Pyricularia oryzae, read-out: PYRIOR in vitro Growth Inhibition. The format is cell-based.
In a further experiment the test system is Septoria tritici—SEPTTR. The experiment in a line: Leaf Blotch of Wheat, in vivo whole plant, 24 Hour Protectant. The following applies: control of fungal infection vs untreated plants; for pest or weed control at 100 ppm: Zymoseptoria tritici, 24 h, read-out: SEPTTR in vivo 1 Day Protectant.
In experiment [7] the test system is Mycosphaerella graminicola (Septoria tritici—SEPTTR). The experiment in a line: In vitro fungal growth inhibition, Mycosphaerella graminicola (SEPTTR). Type of experiment: cell-based. The following applies: Zymoseptoria tritici, read-out: SEPTTR in vitro Growth Inhibition.
Another experiment has as its system Erysiphe graminis—ERYSGT. In words: Powdery Mildew of Wheat, in vivo whole plant, 24 Hour Protectant. The following applies: Erysiphe, control of fungal infection vs untreated plants, read-out: ERYSGT in vivo 1 Day Protectant.
Experiment [8] deals with Stagonospora nodorum (Leptosphaeria nodorum—LEPTNO). In words: In vitro fungal growth inhibition, Stagonospora nodorum (LEPTNO). Type of experiment: cell-based. To be noted: Leptosphaeria, read-out: LEPTNO in vitro Growth Inhibition.
Setting [9] is: 100 ppm spray, wheat, 24 hour protectant.
Where [10] appears, read: 100 ppm spray, 24 hour protectant, wheat.
[11] abbreviates: wheat plants sprayed at 100 ppm, inoculated after 24 hours.

The text below walks through data of patent US6706740B2, “Fungicidal heterocyclic aromatic amides and their compositions, methods of use and preparation” (Dow AgroSciences LLC, priority 1999, dated 2004).

Read-outs that look alike come from different tables or passages of the source.

What is called inhibition is the relative decrease from the control value, in per cent. Consider `COc1ccnc(C(=O)Nc2ccccc2Oc2ccc(Cl)cc2)c1O` [Compound 438], for which the pest or weed control at 100 ppm (in experiment [1]; in [2] (setting [9]); in experiment [5] (setting [9]); in the experiment on Septoria tritici—SEPTTR (setting [9]); with Erysiphe graminis—ERYSGT (setting [9])) was below 25% each time. The inhibition at 25 ppm in [3] was below 80%; in experiment [4], below 80%; in the experiment on Ustilago maydis (USTIMA), below 80%; in experiment [6] it was above 80%; in experiment [7] (25 ppm in growth medium) it was above 80%; in [8] (25 ppm in growth medium), above 80%.

Turning to `COc1ccnc(C(=O)Nc2ccc(Oc3ccccc3C)cc2)c1O` [Compound 415], the pest or weed control at 100 ppm in experiment [1] is below 25%; in experiment [2] (setting [9]), 25 to 74%; in experiment [5] (setting [9]) it was below 25%; in the experiment with Septoria tritici—SEPTTR (setting [9]), below 25%; in the experiment on Erysiphe graminis—ERYSGT (setting [9]) it was 25 to 74%. In addition, the inhibition at 25 ppm is below 80% in experiment [3]; below 80% in [4]; below 80% in the experiment on Ustilago maydis (USTIMA); below 80% in experiment [6]; above 80% in experiment [7] (25 ppm in growth medium); below 80% in experiment [8] (25 ppm in growth medium).

For the molecule `COc1ccnc(C(=O)N[C@H]2[C@@H](OC(C)=O)O[C@H](COC(C)=O)[C@@H](OC(C)=O)[C@@H]2OC(C)=O)c1O` [Compound 335], the pest or weed control at 100 ppm in experiment [1] was 25 to 74%; in experiment [2] (setting [9]) it was below 25%; in experiment [5] (setting [9]), 25 to 74%; in the experiment with Septoria tritici—SEPTTR (setting [9]) it was below 25%; in the experiment with Erysiphe graminis—ERYSGT (setting [9]) it was below 25%. The inhibition at 25 ppm (in experiment [3]; in [4]; in the experiment with Ustilago maydis (USTIMA); in experiment [6]; in experiment [7] (25 ppm in growth medium); in experiment [8] (25 ppm in growth medium)) was below 80% in each case.

Turning to `COc1ccnc(C(=O)NCCCc2cccnc2)c1O` [Compound 243], the pest or weed control at 100 ppm in experiment [1] was below 25%; in [2] (setting [10]), 25 to 74%; in experiment [5] (setting [10]) it was 25 to 74%; in the experiment on Septoria tritici—SEPTTR (setting [10]), 25 to 74%; with Erysiphe graminis—ERYSGT (setting [10]) it was below 25%. Also, the inhibition at 25 ppm (in experiment [3]; in [4]; with Ustilago maydis (USTIMA); in [6]; in experiment [7] (25 ppm in growth medium); in experiment [8] (25 ppm in growth medium)) was below 80% each time.

Turning to `COc1cccc(Oc2ccccc2NC(=O)c2nccc(OC)c2O)c1` [Compound 428], the pest or weed control at 100 ppm (in [1]; in [2] (setting [9]); in experiment [5] (setting [9]); in the experiment on Septoria tritici—SEPTTR (setting [9]); in the experiment with Erysiphe graminis—ERYSGT (setting [9])) was below 25% each time. Besides, the inhibition at 25 ppm in [3] is below 80%; in experiment [4], below 80%; in the experiment with Ustilago maydis (USTIMA), below 80%; in [6], above 80%; in experiment [7] (25 ppm in growth medium) it was above 80%; in experiment [8] (25 ppm in growth medium), below 80%.

Regarding `COc1ccnc(C(=O)NC2C3CC4C(C3Cl)C42)c1O` (stereo not drawn) [Compound 304], the pest or weed control at 100 ppm is below 25% in experiment [1], below 25% in experiment [2] (setting [10]), 25 to 74% in experiment [5] (setting [10]) and below 25% with Erysiphe graminis—ERYSGT (setting [10]). For the same molecule, the inhibition at 25 ppm in [3] was below 80%; in experiment [4] it was above 80%; in the experiment on Ustilago maydis (USTIMA), below 80%; in [6] it was below 80%; in [7] (25 ppm in growth medium) it was below 80%; in experiment [8] (25 ppm in growth medium), below 80%. The “SEPTTR in vivo 1 Day Protectant” value in the experiment with Septoria tritici—SEPTTR (setting [10]) is on record as “+ +”.

As to `CC(NC(=O)c1ccncc1O)c1ccc(C(F)(F)F)cc1` (stereo not drawn) [Compound 510], the pest or weed control at 100 ppm in experiment [1] was 25 to 74%; in experiment [2] (setting [11]), below 25%; in experiment [5] (setting [11]), below 25%; in the experiment with Septoria tritici—SEPTTR (setting [11]) it was below 25%; in the experiment with Erysiphe graminis—ERYSGT (setting [11]), below 25%. The inhibition at 25 ppm (in experiment [3]; in experiment [4]; in the experiment on Ustilago maydis (USTIMA); in experiment [6]; in experiment [7] (25 ppm in the growth medium); in experiment [8] (25 ppm in the growth medium)) was below 80% in each case.

For the molecule `O=C(Nc1ccc(Cl)cc1)c1ncccc1O` [Compound 213], the pest or weed control at 100 ppm was 25 to 74% in [1], below 25% in experiment [5] (setting [10]), below 25% in the experiment on Septoria tritici—SEPTTR (setting [10]) and below 25% in the experiment with Erysiphe graminis—ERYSGT (setting [10]). For the same molecule, the “PUCCRT in vivo 1 Day Protectant” value in [2] (setting [10]) was “+ +”. The inhibition at 25 ppm is above 80% in [3]; below 80% in experiment [4]; below 80% with Ustilago maydis (USTIMA); below 80% in experiment [6]; above 80% in [7] (25 ppm in growth medium); below 80% in [8] (25 ppm in growth medium).

Turning to `COc1ccnc(C(=O)NC2CC(=O)OCC(C)COC2=O)c1O` (stereo not drawn) [Compound 378], the pest or weed control at 100 ppm in experiment [1] was below 25%; in experiment [2] (setting [9]), below 25%; in experiment [5] (setting [9]) it was 25 to 74%; with Septoria tritici—SEPTTR (setting [9]), below 25%; with Erysiphe graminis—ERYSGT (setting [9]) it was below 25%. Besides, the inhibition at 25 ppm (in [3]; in experiment [4]; in the experiment on Ustilago maydis (USTIMA); in experiment [6]; in experiment [7] (25 ppm in growth medium); in experiment [8] (25 ppm in growth medium)) was below 80% each time.

In the case of `COc1ccnc(C(=O)N[C@@H]2OC[C@@H](OCc3ccccc3)[C@H](OCc3ccccc3)[C@H]2OCc2ccccc2)c1O` [Compound 332], the pest or weed control at 100 ppm in [1] is below 25%; in experiment [2] (setting [9]), below 25%; in [5] (setting [9]) it was 25 to 74%; in the experiment on Septoria tritici—SEPTTR (setting [9]), 25 to 74%; in the experiment with Erysiphe graminis—ERYSGT (setting [9]), below 25%. Also, the inhibition at 25 ppm (in [3]; in [4]; with Ustilago maydis (USTIMA); in experiment [6]; in [7] (25 ppm in growth medium); in [8] (25 ppm in growth medium)) was below 80% in each case.

With `COc1ccnc(C(=O)N[C@H]2COC(=O)[C@H](Cc3ccccc3)[C@@H](OC(=O)C3C(C)CCCC3C)[C@H](C)OC2=O)c1O` (stereo partly drawn) [Compound 393], the pest or weed control at 100 ppm was below 25% in experiment [1]; 25 to 74% in experiment [2] (setting [9]); 25 to 74% in [5] (setting [9]); 25 to 74% in the experiment on Septoria tritici—SEPTTR (setting [9]); below 25% in the experiment with Erysiphe graminis—ERYSGT (setting [9]). Also, the inhibition at 25 ppm is below 80% in experiment [3]; below 80% in experiment [4]; above 80% with Ustilago maydis (USTIMA); above 80% in experiment [6]; above 80% in [7] (25 ppm in growth medium); above 80% in experiment [8] (25 ppm in growth medium).

Regarding `COc1ccnc(C(=O)NC(COC(=O)C(Cc2ccccc2)C(C)OC(=O)C(C)C)C(=O)OC(C)C)c1OC(C)=O` (stereo not drawn) [Compound 589], the pest or weed control at 100 ppm is below 25% in experiment [1]; 25 to 74% in [2] (setting [11]); below 25% in [5] (setting [11]); 25 to 74% with Septoria tritici—SEPTTR (setting [11]); below 25% in the experiment with Erysiphe graminis—ERYSGT (setting [11]). The inhibition at 25 ppm (in experiment [3]; in [4]; with Ustilago maydis (USTIMA); in [6]; in experiment [7] (25 ppm in the growth medium); in experiment [8] (25 ppm in the growth medium)) was below 80% in each case.
